# From patent publication US20140213508A1, “ANTIVIRAL MACROCYCLES” (priority 2012, published 2014)
# pEC50, pIC50: −log10 of the molar value. Like-named read-outs stand apart in the source and are kept apart here. Numbered stars: 1 amine (or outer) side, 2 acyl side, 3 side chain; on linkers, the order of the positions; unused ones are H or OH. Square brackets hold non-standard residues; d marks the D form. Peptide text beside a SMILES is read from it. ξ: configuration not given here. X1 = CN(C)C1(CS[C@H](C(=O)[*:2])N(C)[*:1])CCC1; ξNMeBmt = C/C=C/C[C@@H](C)[C@@H](O)C(NC)C(=O)O; X2 = CC(C)[C@H](C(=O)[*:2])N(Cc1ccccc1)[*:1]; X3 = CCNC1(CS[C@H](C(=O)[*:2])N(C)[*:1])CC1; X4 = CNC1(CS[C@H](C(=O)[*:2])N(C)[*:1])CC1; NMeLeu(4-OH) = CN[C@@H](CC(C)(C)O)C(=O)O; NMeL = CN[C@@H](CC(C)C)C(=O)O; dNMeL = CN[C@H](CC(C)C)C(=O)O; dNMeV = CN[C@@H](C(=O)O)C(C)C; dAbu = CC[C@@H](N)C(=O)O
# Assays:
# [1] = tested on: HCV RNA replicon Genotype 1b; experiment: HCV replicon assay, 1b replicon (LUC); conditions: Hepatitis C virus, 72 h, read-out: mean EC50 Genotype 1b
# Source text: Compounds were examined in the human hepatoma cell a HCV RNA replicon containing a stable luciferase (LUC) reporter. The HCV RNA replicon ET contains the 5′ end of HCV (with the HCV Internal Ribosome Entry Site (IRES) and the first few amino acids of the HCV core protein) which drives the production of neomycin phosphotransferase (NeoR) fusion protein. A luciferase reported is incorporated into 1b replicon. The EMCV IRES element controls the translation of the HCV structural proteins NS3-NS5. The NS3 protein cleaves the HCV polyprotein to release the mature NS3, NS4A, NS4B, NS5A and NS5B proteins that are required for HCV replication. At the 3′ end of the replicon is the authentic 3′ NTR of HCV. The activity of the LUC reporter is directly proportional to HCV replication levels and positive-control antiviral compounds produce a reproducible antiviral response using the LUC endpoint.
# The compounds were dissolved in DMSO at six half-log concentrations. HCV replicon cells were plated out into 96 well plates dedicated for the analysis of cell numbers (cytotoxicity) or antiviral activity and the next day the compounds were added to the appropriate wells. […] Compound EC50 and EC90 values were derived from HCV RNA levels assessed as HCV RNA replicon derived LUC activity. […] Compound IC50 and IC90 values were calculated using a colorimetric assay as an indication of cell numbers and cytotoxicity. […]
# Cyclophilin A = Cyclophilin A (Homo sapiens, UniProt P62937); experiment: Cyclophilin binding competitive ELISA; conditions: human recombinant cyclophilin
# Sequence of Cyclophilin A (P62937 whole entry): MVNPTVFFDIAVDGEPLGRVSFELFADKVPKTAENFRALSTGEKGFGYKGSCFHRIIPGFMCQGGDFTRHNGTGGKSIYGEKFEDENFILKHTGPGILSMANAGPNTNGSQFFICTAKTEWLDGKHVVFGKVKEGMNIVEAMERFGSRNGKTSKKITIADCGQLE
# Cyclophilin B = Cyclophilin B (Homo sapiens, UniProt P23284); experiment: Cyclophilin binding competitive ELISA; conditions: human recombinant cyclophilin
# Sequence of Cyclophilin B (P23284 34-216): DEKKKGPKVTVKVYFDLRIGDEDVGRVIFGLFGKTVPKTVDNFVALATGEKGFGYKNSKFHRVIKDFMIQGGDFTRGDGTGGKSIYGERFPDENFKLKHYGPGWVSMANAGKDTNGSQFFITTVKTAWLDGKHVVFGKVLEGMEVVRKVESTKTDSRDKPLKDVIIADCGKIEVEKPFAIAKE
# Source text: Plates were washed as described above. […] Plates were washed as described above.
# [2] = tested on: IFN-α production in human peripheral blood mononuclear cells; experiment: IFN-α production in human PBMCs (ELISA); assay type: cell-based; conditions: 2 μM for 24 hours; for pg/mL IFNα Av.: average; for pg/mL IFNα: individual wells
# [3] = tested on: Dengue virus DENV1 strain; experiment: Dengue virus infection and replication assay in HuH7 cells; assay type: cell-based; conditions: read-out: IC50 Dengue virus production
# Method: Compounds A, B, and F were tested for activity against Dengue virus in a cell-based assay of viral infection and replication. HuH7 cells were infected with the DENV1 strain (multiplicity of infection=0.1). After a 1 hour incubation to allow viral attachment and infection, compounds were added (at concentrations of 1, 3 and 9 μM, in triplicate). Incubation was continued for 5 days, and cells and media were then harvested for analysis. Viral replication was assessed by a real-time RT-PCR assay for virus present in the media, and cells were assayed for metabolic viability (MTT assay).
# [4] = tested on: IFN-λ1 (IL-29) production in human peripheral blood mononuclear cells; experiment: IL-29 production in human PBMCs (ELISA); assay type: cell-based; conditions: 2 μM for 24 hours; for pg/mL IL29 Av.: average; for pg/mL IL29: individual wells
# [5] = tested on: HBV entry into cultured hepatocytes (HepaRG cells); experiment: Inhibition of HBV entry into HepaRG cells; assay type: cell-based; conditions: Hepatitis B virus, 288 h, read-out: IC50 HBV entry
# [6] = tested on: IFN-α production in human peripheral blood mononuclear cells; experiment: IFN-α production in human PBMCs (ELISA); assay type: cell-based; conditions: 2 μM for 24 hours, individual wells
# Method: Cryopreserved commercial or previously isolated PBMCs from HCV donors cryopreserved in RPMI1640)/Fetal Bovine/DMSO solution (50/40/10 v/v) were tested with compounds provided herein. […]
# PBMC were cultured for 24 hours at 37° C. in RPMI cell culture medium in flat bottom 48 well-plates. Each well received 180 μL of cell suspension (2×10^6 cells/mL). […] At the end of the incubation, the plates are centrifuged at 200 times g for 5 minutes. The cell supernatants are collected and assayed by ELISA for cytokines IFN-α's (the detection reagent recognized 14 of the 15 known human IFN-α subtypes) and IFN-λ1 (IL-29). The cell pellet is washed twice with cold PBS and ATP content are determined by adding 100 μL per well of the Cell Titer Glo® (Promega, Madison, Wis.). Plates are then placed at −80° C. until protein analysis. For the protein analysis, plates are thawed, scraped and the protein content of the cell suspension determined using BCA Protein Assay Kit (23227, ThermoScientific, Rockford Ill.).
# [7] = tested on: Influenza A H1N1 (A/CA/05/09); experiment: Anti-influenza virus cytoprotection assay in MDCK cells; assay type: cell-based; conditions: in triplicate, read-out: IC50 against Influenza A H1N1
# [8] = HepaRG cells, HBs level by ELISA 12 days post-infection
# [9] = donor CT2 (test 3) (HCV, cryopreserved PBMCs)
# [10] = donor Healthy 2, background subtracted
Structure (SMILES),pEC50 [1],pIC50 (Cyclophilin A),pIC50 (Cyclophilin B),pg/mL IFNα Av. ([2]; donor Healthy 1),pg/mL IFNα ([2]; donor Healthy 1),pg/mL IFNα Av. ([2]; donor Healthy 2),pg/mL IFNα ([2]; donor Healthy 2),pg/mL IFNα Av. ([2]; donor Healthy 3),pg/mL IFNα ([2]; donor Healthy 3),"pIC50 ([3]; DENV1, Huh-7, 120 h)",pg/mL IL29 ([4]; donor Healthy 1),pg/mL IL29 Av. ([4]; donor Healthy 3),pg/mL IL29 ([4]; donor Healthy 3),"pIC50 [5, 8]","pg/mL IFNα [6, 9]",further results
C/C=C/C[C@@H](C)[C@@H](O)C1C(=O)N[C@H](CC)C(=O)N(C)[C@H](SCC2(NCC)CC2)C(=O)N(C)[C@@H](CC(C)(C)O)C(=O)N[C@H](C(C)C)C(=O)N(C)[C@H](CC(C)C)C(=O)N[C@H](C)C(=O)N[C@@H](C)C(=O)N(C)[C@H](CC(C)C)C(=O)N(C)[C@H](CC(C)C)C(=O)N(C)[C@H](C(C)C)C(=O)N1C (stereo partly shown) [Compound H] (cyclo(A[dNMeL][dNMeL][dNMeV][ξNMeBmt][dAbu][X3][NMeLeu(4-OH)][dV][dNMeL][dA])),7.40,7.85,7.80,,,,,,,,,,,,,
C/C=C/C[C@@H](C)[C@@H](O)C1C(=O)N[C@H](CC)C(=O)N(C)[C@H](SCC2(NC)CC2)C(=O)N(C)[C@@H](CC(C)(C)O)C(=O)N[C@H](C(C)C)C(=O)N(C)[C@H](CC(C)C)C(=O)N[C@H](C)C(=O)N[C@@H](C)C(=O)N(C)[C@H](CC(C)C)C(=O)N(C)[C@H](CC(C)C)C(=O)N(C)[C@H](C(C)C)C(=O)N1C (stereo partly shown) [Compound G] (cyclo(A[dNMeL][dNMeL][dNMeV][ξNMeBmt][dAbu][X4][NMeLeu(4-OH)][dV][dNMeL][dA])),7.22,7.54,7.30,,,,,,,,,,,,,
CC=CC[C@@H](C)[C@@H](O)C1C(=O)NC(CC)C(=O)N(C)C(SCC2(N(C)C)CC2)C(=O)N(C)[C@@H](CC(C)(C)O)C(=O)NC(C(C)C)C(=O)N(C)C(CC(C)C)C(=O)NC(C)C(=O)NC(C)C(=O)N(C)C(CC(C)C)C(=O)N(C)C(CC(C)C)C(=O)N(C)C(C(C)C)C(=O)N1C (stereo in doubt) [Compound A],,,,<LOQ,<LOQ,<LOQ,<LOQ,<LOQ,<LOQ,< 5.05,<LOQ,<LOQ,<LOQ,5.80,7 pg/mL,"pg/mL IL29 Av. ([4]; donor Healthy 1): <LOQ; pg/mL IFNα ([6]; donor CT2 (HCV), first test): 4 pg/mL"
CC=CC[C@@H](C)[C@@H](O)C1C(=O)NC(CC)C(=O)N(C)C(SCC2(N(C)C(C)C)CC2)C(=O)N(C)[C@@H](CC(C)(C)O)C(=O)NC(C(C)C)C(=O)N(C)C(CC(C)C)C(=O)NC(C)C(=O)NC(C)C(=O)N(C)C(CC(C)C)C(=O)N(C)C(CC(C)C)C(=O)N(C)C(C(C)C)C(=O)N1C (stereo in doubt) [Compound B],,,,<LOQ,<LOQ,<LOQ,<LOQ,<LOQ,<LOQ,,20 pg/mL and <LOQ,<LOQ,<LOQ,> 6.00,8 pg/mL,"pIC50 ([3]; Huh-7, 120 h, HuH7 cells, DENV1, 5 days, real-time RT-PCR of media): 6.00; pg/mL IL29 Av. [4, 10]: <LOQ; pg/mL IL29 [4, 10]: <LOQ"
C/C=C/C[C@@H](C)[C@@H](O)C1C(=O)N[C@H](CC)C(=O)N(C)[C@H](SCC2(N(C)C)CCC2)C(=O)N(C)[C@@H](CC(C)C)C(=O)N(Cc2ccccc2)[C@H](C(C)C)C(=O)N(C)[C@H](CC(C)C)C(=O)N[C@H](C)C(=O)N[C@@H](C)C(=O)N(C)[C@H](CC(C)C)C(=O)N(C)[C@H](CC(C)C)C(=O)N(C)[C@H](C(C)C)C(=O)N1C (stereo partly shown) [Compound F] (cyclo(A[dNMeL][dNMeL][dNMeV][ξNMeBmt][dAbu][X1][NMeL][X2][dNMeL][dA])),,,,,,,,,,5.85,,,,,,pIC50 ([5]; HepaRG): > 6.00; pIC50 [7]: 5.27
